Laboratory results: ChEMBL document CHEMBL5376003, “Structure-Activity Relationship of FL118 Platform Position 7 Versus Position 9-Derived Compounds and Their Mechanism of Action and Antitumor Activity” (J Med Chem, 2023)
Calls of active or inactive are those of the source. The rule behind the calls is not given here.

Tests used:
HCT-116 [1] = experiment: Induction of apoptosis in human HCT-116 cells assessed as downregulation of ATIC gene expression at 10 to 500 nM incubated for 6 to 48 hrs by RNA analysis; type: functional, cell-based; details: dose 10-500 nM, time 6-48 hrs
HCT-116 [2] = experiment: Induction of apoptosis in human HCT-116 cells assessed as downregulation of DTYMK gene expression at 10 to 500 nM incubated for 6 to 48 hrs by RNA analysis; type: functional, cell-based; details: dose 10-500 nM, time 6-48 hrs
MCF7 = experiment: Growth inhibition of human MCF7 cells incubated for 48 hrs by MTT reagent based ELISA reader analysis; type: functional, cell-based; details: MCF7, 48 h
HCT-116 [3] = experiment: Induction of apoptosis in human HCT-116 cells assessed as downregulation of ADPGK gene expression at 10 to 500 nM incubated for 6 to 48 hrs by RNA analysis; type: functional, cell-based; details: dose 10-500 nM, time 6-48 hrs
HCT-116 [4] = experiment: Induction of apoptosis in human HCT-116 cells assessed as downregulation of NT5C2 gene expression at 10 to 500 nM incubated for 6 to 48 hrs by RNA analysis; type: functional, cell-based; details: dose 10-500 nM, time 6-48 hrs
HCT-116 [5] = experiment: Induction of apoptosis in human HCT-116 cells assessed as downregulation of AK8 gene expression at 10 to 500 nM incubated for 6 to 48 hrs by RNA analysis; type: functional, cell-based; details: dose 10-500 nM, time 6-48 hrs
HCT-116 [6] = experiment: Activation of innate immune response in human HCT-116 cells assessed as upregulation of IRF7 gene expression at 10 to 500 nM incubated for 6 to 48 hrs by RNA analysis; type: functional, cell-based; details: dose 10-500 nM, time 6-48 hrs
HCT-116 [7] = experiment: Activation of innate immune response in human HCT-116 cells assessed as upregulation of IL-12B gene expression at 10 to 500 nM incubated for 6 to 48 hrs by RNA analysis; type: functional, cell-based; details: dose 10-500 nM, time 6-48 hrs
HCT-116 [8] = experiment: Induction of apoptosis in human HCT-116 cells assessed as downregulation of BCL2 mRNA expression at 10 to 500 nM incubated for 6 to 48 hrs by RNA analysis; type: functional, cell-based; details: dose 10-500 nM, time 6-48 hrs
HCT-116 [9] = experiment: Induction of apoptosis in human HCT-116 cells assessed as downregulation of PUDP gene expression at 10 to 500 nM incubated for 6 to 48 hrs by RNA analysis; type: functional, cell-based; details: dose 10-500 nM, time 6-48 hrs
HCT-116 [10] = experiment: Induction of apoptosis in human HCT-116 cells assessed as downregulation of HPRT1 gene expression at 10 to 500 nM incubated for 6 to 48 hrs by RNA analysis; type: functional, cell-based; details: dose 10-500 nM, time 6-48 hrs
HCT-116 [11] = experiment: Induction of apoptosis in human HCT-116 cells assessed as downregulation of NUP205 gene expression at 10 to 500 nM incubated for 6 to 48 hrs by RNA analysis; type: functional, cell-based; details: dose 10-500 nM, time 6-48 hrs
HCT-116 [12] = experiment: Inhibition of cell migration in human HCT-116 cells assessed as intercellular distance at 5 nM by inverted phase-contrast microscopic analysis (reference value: 2.5 +/- 0.7 millimeter); type: functional
HCT-116 [13] = experiment: Induction of apoptosis in human HCT-116 cells assessed as downregulation of RFC3 mRNA expression at 10 to 500 nM incubated for 6 to 48 hrs by RNA analysis; type: functional, cell-based; details: dose 10-500 nM, time 6-48 hrs
HCT-116 [14] = experiment: Activation of innate immune response in human HCT-116 cells assessed as upregulation of IL-1A gene expression at 10 to 500 nM incubated for 6 to 48 hrs by RNA analysis; type: functional, cell-based; details: dose 10-500 nM, time 6-48 hrs
PDX14244 = experiment: Antitumor activity against human PDX14244 cells xenografted in SCID mouse model assessed as reduction in tumor volume at 8 mg/kg,po administrated once per week for 3 weeks; type: functional, organism-based
HCT-116 [15] = experiment: Induction of apoptosis in human HCT-116 cells assessed as downregulation of NUP107 gene expression at 10 to 500 nM incubated for 6 to 48 hrs by RNA analysis; type: functional, cell-based; details: dose 10-500 nM, time 6-48 hrs
HCT-116 [16] = experiment: Induction of apoptosis in human HCT-116 cells assessed as downregulation of NUP98 gene expression at 10 to 500 nM incubated for 6 to 48 hrs by RNA analysis; type: functional, cell-based; details: dose 10-500 nM, time 6-48 hrs
HCT-116 [17] = experiment: Induction of apoptosis in human HCT-116 cells assessed as increase in intracellular ROS level incubated for 48 hrs by DCFH-DA staining based fluorescence microscopy; type: functional, cell-based
HCT-116 [18] = experiment: Induction of apoptosis in human HCT-116 cells assessed as downregulation of NT5C3A gene expression at 10 to 500 nM incubated for 6 to 48 hrs by RNA analysis; type: functional, cell-based; details: dose 10-500 nM, time 6-48 hrs
HCT-116 [19] = experiment: Induction of apoptosis in human HCT-116 cells assessed as modulation of DDX21 mRNA expression at 10 to 500 nM incubated for 6 to 48 hrs by RNA analysis; type: functional, cell-based; details: dose 10-500 nM, time 6-48 hrs
HCT-116 [20] = experiment: Induction of apoptosis in human HCT-116 cells assessed as downregulation of NME4 gene expression at 10 to 500 nM incubated for 6 to 48 hrs by RNA analysis; type: functional, cell-based; details: dose 10-500 nM, time 6-48 hrs
HCT-116 [21] = experiment: Activation of innate immune response in human HCT-116 cells assessed as upregulation of CASP1 gene expression at 10 to 500 nM incubated for 6 to 48 hrs by RNA analysis; type: functional, cell-based; details: dose 10-500 nM, time 6-48 hrs
HCT-116 [22] = experiment: Induction of apoptosis in human HCT-116 cells assessed as modulation of DDX17 mRNA expression at 10 to 500 nM incubated for 6 to 48 hrs by RNA analysis; type: functional, cell-based; details: dose 10-500 nM, time 6-48 hrs
HCT-116 [23] = experiment: Induction of apoptosis in human HCT-116 cells assessed as modulation of DDX18 mRNA expression at 10 to 500 nM incubated for 6 to 48 hrs by RNA analysis; type: functional, cell-based; details: dose 10-500 nM, time 6-48 hrs
HCT-116 [24] = experiment: Activation of innate immune response in human HCT-116 cells assessed as upregulation of IRF3 gene expression at 10 to 500 nM incubated for 6 to 48 hrs by RNA analysis; type: functional, cell-based; details: dose 10-500 nM, time 6-48 hrs
HCT-116 [25] = experiment: Induction of apoptosis in human HCT-116 cells assessed as downregulation of TK1 gene expression at 10 to 500 nM incubated for 6 to 48 hrs by RNA analysis; type: functional, cell-based; details: dose 10-500 nM, time 6-48 hrs
HCT-116 [26] = experiment: Induction of apoptosis in human HCT-116 cells assessed as downregulation of SLC25A13 gene expression at 10 to 500 nM incubated for 6 to 48 hrs by RNA analysis; type: functional, cell-based; details: dose 10-500 nM, time 6-48 hrs
HCT-116 [27] = experiment: Induction of apoptosis in human HCT-116 cells assessed as downregulation of Survivin protein expression incubated for 48 hrs by Western blotting analysis; type: functional, cell-based
HCT-116 [28] = experiment: Induction of apoptosis in human HCT-116 cells assessed as downregulation of NUDT15 gene expression at 10 to 500 nM incubated for 6 to 48 hrs by RNA analysis; type: functional, cell-based; details: dose 10-500 nM, time 6-48 hrs
HCT-116 [29] = experiment: Induction of apoptosis in human HCT-116 cells assessed as downregulation of TXNRD1 gene expression at 10 to 500 nM incubated for 6 to 48 hrs by RNA analysis; type: functional, cell-based; details: dose 10-500 nM, time 6-48 hrs
HCT-116 [30] = experiment: Induction of apoptosis in human HCT-116 cells assessed as downregulation of NUP93 gene expression at 10 to 500 nM incubated for 6 to 48 hrs by RNA analysis; type: functional, cell-based; details: dose 10-500 nM, time 6-48 hrs
HCT-116 [31] = experiment: Induction of apoptosis in human HCT-116 cells assessed as modulation of TOP3B mRNA expression at 10 to 500 nM incubated for 6 to 48 hrs by RNA analysis; type: functional, cell-based; details: dose 10-500 nM, time 6-48 hrs
HCT-116 [32] = experiment: Induction of apoptosis in human HCT-116 cells assessed as downregulation of NT5C gene expression at 10 to 500 nM incubated for 6 to 48 hrs by RNA analysis; type: functional, cell-based; details: dose 10-500 nM, time 6-48 hrs

SMILES	Activity (HCT-116 [1])	Activity (HCT-116 [2])	IC50 (MCF7) [nM]	Activity (HCT-116 [4])	Activity (HCT-116 [5])	Activity (HCT-116 [6])	Activity (HCT-116 [7])	Activity (HCT-116 [8])	Activity (HCT-116 [9])	Activity (HCT-116 [11])	Activity (HCT-116 [12]) [mm]	Activity (HCT-116 [13])	Activity (HCT-116 [15])	Activity (HCT-116 [16])	Activity (HCT-116 [17])	Activity (HCT-116 [18])	Activity (HCT-116 [19])	Activity (HCT-116 [20])	Activity (HCT-116 [22])	Activity (HCT-116 [23])	further results
CC[C@@]1(O)C(=O)OCc2c1cc1n(c2=O)Cc2c-1nc1cc3c(cc1c2-c1ccc(OC)cc1)OCO3	Active	Active	45.8	Active	Active	Active	Active	Active	Active	Active	2.8	Active	Active	Active	Dose-Dependent Effect	Active	Active	Active	Active	Active	Activity (HCT-116 [3]): Active; Activity (HCT-116 [10]): Active; Activity (HCT-116 [14]): Active; Activity (PDX14244): Active; Activity (HCT-116 [21]): Active; Activity (HCT-116 [24]): Active; Activity (HCT-116 [25]): Active; Activity (HCT-116 [26]): Active; Activity (HCT-116 [27]): Active; Activity (HCT-116 [28]): Active; Activity (HCT-116 [29]): Active; Activity (HCT-116 [30]): Active; Activity (HCT-116 [31]): Active; Activity (HCT-116 [32]): Active
CC[C@@]1(O)C(=O)OCc2c1cc1n(c2=O)Cc2cc3cc4c(cc3nc2-1)OCO4	Active	Active	32.2	Active	Active	Active	Active	Active	Active	Active	2.6	Active	Active	Active	Dose-Dependent Effect	Active	Active	Active	Active	Active	Activity (HCT-116 [3]): Active; Activity (HCT-116 [10]): Active; Activity (HCT-116 [14]): Active; Activity (HCT-116 [21]): Active; Activity (HCT-116 [24]): Active; Activity (HCT-116 [25]): Active; Activity (HCT-116 [26]): Active; Activity (HCT-116 [28]): Active; Activity (HCT-116 [29]): Active; Activity (HCT-116 [30]): Active; Activity (HCT-116 [31]): Active; Activity (HCT-116 [32]): Active
CCc1ccc(-c2c3c(nc4cc5c(cc24)OCO5)-c2cc4c(c(=O)n2C3)COC(=O)[C@]4(O)CC)cc1	Active	Active	47.4	Active	Active	Active	Active	Active	Active	Active	2.6	Active	Active	Active	Dose-Dependent Effect	Active	Active	Active	Active	Active	Activity (HCT-116 [3]): Active; Activity (HCT-116 [10]): Active; Activity (HCT-116 [14]): Active; Activity (PDX14244): Active; Activity (HCT-116 [21]): Active; Activity (HCT-116 [24]): Active; Activity (HCT-116 [25]): Active; Activity (HCT-116 [26]): Active; Activity (HCT-116 [27]): Active; Activity (HCT-116 [28]): Active; Activity (HCT-116 [29]): Active; Activity (HCT-116 [30]): Active; Activity (HCT-116 [31]): Active; Activity (HCT-116 [32]): Active
CC[C@@]1(O)C(=O)OCc2c1cc1n(c2=O)Cc2c-1nc1cc3c(cc1c2-c1cc(OC)cc(OC)c1)OCO3	Active	Active	< 6.4	Active	Active	Active	Active	Active	Active	Active	2.7	Active	Active	Active	Dose-Dependent Effect	Active	Active	Active	Active	Active	Activity (PDX14244): Active; Activity (HCT-116 [24]): Active; Activity (HCT-116 [25]): Active; Activity (HCT-116 [26]): Active; Activity (HCT-116 [27]): Active; Activity (HCT-116 [29]): Active; Activity (HCT-116 [30]): Active; Activity (HCT-116 [31]): Active; Activity (HCT-116 [32]): Active
